Results published in patent publication US11534457B2, “Use of dextran sulfate” (priority 2017, dated 2022).

Tested on: /Mphg system [HUVEC and M1 macrophages+Zymosan (TLR2 ligand)]
Assay: BioMAP /Mphg system
Type: cell-based, Human
Source text: In this study LMW-DS was characterized by profiling in the BioMAP® Diversity PLUS panel. The BioMAP® panel consists of human primary cell-based systems designed to model different aspects of the human body in an in vitro format. The 12 systems in the BioMAP® Diversity PLUS panel (Table 32) allow test agent characterization in an unbiased way across a broad set of systems modeling various human disease states. The BioMA®P systems are constructed with one or more primary cell types from healthy human donors, with stimuli, such as cytokines or growth factors, added to capture relevant signaling networks that naturally occur in human tissue or pathological conditions. Vascular biology is modeled in both a Th1 (3C system) and a Th2 (4H system) inflammatory environment, as well as in a Th1 inflammatory state specific to arterial smooth muscle cells (CASM3C system). […]
Systems are derived from either single cell types or co-culture systems. […] Test agents prepared in either DMSO (small molecules; final concentration 0.1%) or PBS (biologics) are added at the indicated concentrations 1-hr before stimulation, and remain in culture for 24-hrs or as otherwise indicated (48-hrs, MyoF system; 72-hrs, BT system (soluble readouts); 168-hrs, BT system (secreted IgG)). […]

For “low molecular weight dextran sulfate [LMW-DS]”, the Increased biomarker activity was “IL-8, CD69”.
